{"source": "paper PMC7226417", "about": "“Utilizing Genome-Wide mRNA Profiling to Identify the Cytotoxic Chemotherapeutic Mechanism of Triazoloacridone C-1305 as Direct Microtubule Stabilization” (Cancers, 2020)", "tested_on": "T1, tubulin (α/β tubulin dimer)", "T1 construct": "with α- and β-tubulin heterodimer", "assay": "in vitro tubulin polymerization assay, turbidity at […] nm (stabilization of polymerization)", "assay_type": "biochemical", "data": [{"compound": "CN(C)CCCNc1ccc2nnn3c4ccc(O)cc4c(=O)c1c23", "note": "[C-1305, 5-{[3-(Dimethylamino)propyl]amino}-8-hydroxy-6H-[1,2,3]triazolo[4,5,1-de]acridin-6-one]", "values": [{"measurement": "EC50", "result": 2740, "unit": "nM"}]}]}
